Experimental data reported in patent US20240174723A1, “STAPLED ANTIMICROBIAL PEPTIDES (STAMPS) AND USES THEREOF” (Lytica Therapeutics, Inc., priority 2021, published 2024).
Converted amounts (≈) assume the structure as drawn. Read-outs that look alike come from different tables or passages of the source. Positions of bridges follow the written chain, without caps; N, C: chain ends. Non-standard residues stand in square brackets, D forms with d. Residues, ends and D or L forms follow the SMILES beside them. Phe(4-CF3) = N[C@@H](Cc1ccc(C(F)(F)F)cc1)C(=O)O; Phe(4-tBu) = CC(C)(C)c1ccc(C[C@H](N)C(=O)O)cc1; S5 = C=CCCC[C@](C)(N)C(=O)O; Dab = NCC[C@H](N)C(=O)O; Dap = NC[C@H](N)C(=O)O

Legend:
K. pneumoniae = type: cell-based, Klebsiella pneumoniae
Summary of the method: (§1)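 Visible-growth endpoint after 20-24 h at 37 °C defines the MIC. Test organisms, pre-grown to log phase, were exposed at 5×10^5 CFU/ml to peptide dilution series in standard or cation-adjusted Mueller-Hinton broth.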

in vitro [1] = type: cell-based; settings: human
Summary of the method: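 Cytotoxicity read by CellTiter-Glo luminescence after 48 h at 37 °C exposure to serially diluted StAMPs or vehicle. HepG2 cells were grown in EMEM plus 10% FBS and given 4 h to attach before dosing; peptides came from a 5 mg/mL aqueous stock.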

A. baumannii = type: cell-based, Acinetobacter baumannii
Summary of the method: as §1

in vitro [2] = type: cell-based; settings: human; remark: listed apart in the source
Summary of the method: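 LDH release (absorbance at 490 nm) measured in the media of cells treated with serially diluted StAMPs or vehicle at 37 °C: 90 min for renal RPTEC, 48 h for liver HepG2. Cells were seeded overnight beforehand and media refreshed before dosing.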

P. aeruginosa = type: cell-based, Pseudomonas aeruginosa
Summary of the method: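 MIC taken as lowest peptide concentration with no visible growth after 20-24 h at 37 °C. Peptide serial dilutions from water stocks met P. aeruginosa inoculum (5×10^5 CFU/ml final) in MHB or MHB II, per a CLSI-adapted microbroth protocol.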

E. coli = type: cell-based, Escherichia coli
Summary of the method: as §1

S. aureus = type: cell-based, Staphylococcus aureus
Summary of the method: as §1

[3] = Inhibitory Concentration at 50% Cytotoxicity (IC50) Human Liver Cells (HepG2)

Row | SMILES | Minimum Inhibitory Concentration (MIC) K. pneumoniae (K. pneumoniae) | IC50 at 48 hours (in vitro [1]; 48 hours of incubation, read-out: Inhibitory Concentration at 50% Cytotoxicity (IC50) Human Liver Cells (HepG2)) | Minimum Inhibitory Concentration (MIC) A. baumannii (A. baumannii) | IC50 at 90 min (in vitro [2]; 90 minutes of incubation, read-out: Inhibitory Concentration at 50% Cytotoxicity (IC50) Human Renal Proximal Tubule Epithelial Cells (RPTEC)) | Minimum Inhibitory Concentration (MIC) P. aeruginosa (P. aeruginosa) | Minimum Inhibitory Concentration (MIC) E. coli (E. coli) | Minimum Inhibitory Concentration (MIC) S. aureus (S. aureus) | IC50 at 48 hours (in vitro [1]; [3]) | IC50 at 90 min (in vitro [2])
1 | CC(C)[C@@H]1NC(=O)[C@@](C)(NC(=O)[C@H](C)NC(=O)[C@H](CCCCN)NC(=O)CNC(=O)[C@H](Cc2ccccc2)NC(=O)[C@H](CCCCN)NC(=O)[C@H](CCCCN)NC(=O)[C@H](CCCCN)NC(=O)[C@H](CCCCN)NC(=O)[C@H](CCCCN)NC(=O)[C@]2(C)CCCC=CCCC[C@](C)(NC(=O)CN)C(=O)NCC(=O)N[C@@H](CCCCN)C(=O)N[C@@H](Cc3ccccc3)C(=O)N2)CCCC=CCCC[C@@](C)(C(=O)N[C@@H](C)C(=O)N[C@@H](CCCCN)C(=O)N[C@@H](CCCCN)C(=O)NCC(=O)NCC(=O)N[C@@H](CCC(=O)O)C(N)=O)NC(=O)[C@H](CCC(=O)O)NC(=O)[C@@H](Cc2ccccc2)NC1=O [compound 34] (H-G[S5]GKF[S5]KKKKKFGKA[S5]V[dF]E[S5]AKKGGE-NH2; staple 2-6, 16-20) | 2 µg/mL | 109 µg/mL (≈ 37.6 µM) | 2 µg/mL | 96 µg/mL (≈ 33.1 µM) | 4 µg/mL | 2 µg/mL | >64 µg/mL | – | –
2 | CC(C)[C@@H]1NC(=O)[C@@](C)(NC(=O)[C@H](C)NC(=O)[C@H](CCCCN)NC(=O)CNC(=O)[C@H](Cc2ccccc2)NC(=O)[C@H](CCCCN)NC(=O)[C@H](CCCCN)NC(=O)[C@H](CCCCN)NC(=O)[C@H](CCCCN)NC(=O)[C@H](CCCCN)NC(=O)[C@]2(C)CCCC=CCCC[C@](C)(NC(=O)CN)C(=O)NCC(=O)N[C@@H](CCCCN)C(=O)N[C@@H](Cc3ccccc3)C(=O)N2)CCCC=CCCC[C@@](C)(C(=O)N[C@@H](C)C(=O)N[C@@H](CCCCN)C(=O)N[C@@H](CCCCN)C(=O)NCC(=O)NCC(=O)N[C@@H](CCC(=O)O)C(N)=O)NC(=O)[C@H](CCC(=O)O)NC(=O)[C@H](Cc2ccc(C(F)(F)F)cc2)NC1=O [compound 35] (H-G[S5]GKF[S5]KKKKKFGKA[S5]V[Phe(4-CF3)]E[S5]AKKGGE-NH2; staple 2-6, 16-20) | 2 µg/mL | – | 2 µg/mL | – | 2 µg/mL | 2 µg/mL | 64 µg/mL | > 200 µg/mL | ~200 µg/mL (≈ 67.4 µM)
3 | CC(C)[C@@H]1NC(=O)[C@@](C)(NC(=O)[C@H](C)NC(=O)[C@H](CCCCN)NC(=O)CNC(=O)[C@H](Cc2ccccc2)NC(=O)[C@H](CCCCN)NC(=O)[C@H](CCCCN)NC(=O)[C@H](CCCCN)NC(=O)[C@H](CCCCN)NC(=O)[C@H](CCCCN)NC(=O)[C@]2(C)CCCC=CCCC[C@](C)(NC(=O)CN)C(=O)NCC(=O)N[C@@H](CCCCN)C(=O)N[C@@H](Cc3ccccc3)C(=O)N2)CCCC=CCCC[C@@](C)(C(=O)N[C@@H](C)C(=O)N[C@@H](CCCCN)C(=O)N[C@@H](CCCCN)C(=O)NCC(=O)NCC(=O)N[C@@H](CCC(=O)O)C(N)=O)NC(=O)[C@H](CCC(=O)O)NC(=O)[C@H](Cc2ccc(C(C)(C)C)cc2)NC1=O [compound 36] (H-G[S5]GKF[S5]KKKKKFGKA[S5]V[Phe(4-tBu)]E[S5]AKKGGE-NH2; staple 2-6, 16-20) | 2 µg/mL | – | 2 µg/mL | – | 4 µg/mL | 2 µg/mL | 64 µg/mL | > 200 µg/mL | 96 µg/mL (≈ 32.5 µM)
4 | CC(C)[C@@H]1NC(=O)[C@@](C)(NC(=O)[C@H](C)NC(=O)[C@H](CCN)NC(=O)CNC(=O)[C@H](Cc2ccccc2)NC(=O)[C@H](CCCCN)NC(=O)[C@H](CCCCN)NC(=O)[C@H](CCCCN)NC(=O)[C@H](CCCCN)NC(=O)[C@H](CCCCN)NC(=O)[C@]2(C)CCCC=CCCC[C@](C)(NC(=O)CN)C(=O)NCC(=O)N[C@@H](CCCCN)C(=O)N[C@@H](Cc3ccccc3)C(=O)N2)CCCC=CCCC[C@@](C)(C(=O)N[C@@H](C)C(=O)N[C@@H](CCCCN)C(=O)N[C@@H](CCCCN)C(N)=O)NC(=O)[C@H](CCC(=O)O)NC(=O)CNC1=O [compound 39] (H-G[S5]GKF[S5]KKKKKFG[Dab]A[S5]VGE[S5]AKK-NH2; staple 2-6, 16-20) | 8 µg/mL | – | 2 µg/mL | – | 4 µg/mL | 2 µg/mL | >64 µg/mL | 140 µg/mL (≈ 55.2 µM) | 115 µg/mL (≈ 45.3 µM)
5 | CC(C)[C@@H]1NC(=O)[C@@](C)(NC(=O)[C@H](C)NC(=O)[C@H](CCCCN)NC(=O)CNC(=O)[C@H](Cc2ccccc2)NC(=O)[C@H](CCCCN)NC(=O)[C@H](CCCCN)NC(=O)[C@H](CN)NC(=O)[C@H](CCCCN)NC(=O)[C@H](CCCCN)NC(=O)[C@]2(C)CCCC=CCCC[C@](C)(NC(=O)CN)C(=O)NCC(=O)N[C@@H](CCCCN)C(=O)N[C@@H](Cc3ccccc3)C(=O)N2)CCCC=CCCC[C@@](C)(C(=O)N[C@@H](C)C(=O)N[C@@H](CCCCN)C(=O)N[C@@H](CCCCN)C(N)=O)NC(=O)[C@H](CCC(=O)O)NC(=O)CNC1=O [compound 40] (H-G[S5]GKF[S5]KK[Dap]KKFGKA[S5]VGE[S5]AKK-NH2; staple 2-6, 16-20) | 8 µg/mL | – | 2 µg/mL | – | 4 µg/mL | 2 µg/mL | >64 µg/mL | 203 µg/mL (≈ 80.5 µM) | 200 µg/mL (≈ 79.3 µM)
6 | CC(C)[C@@H]1NC(=O)[C@@](C)(NC(=O)[C@H](C)NC(=O)[C@H](CCCCN)NC(=O)CNC(=O)[C@H](Cc2ccccc2)NC(=O)[C@H](CCCCN)NC(=O)[C@H](CCCCN)NC(=O)[C@H](CCCCN)NC(=O)[C@H](CO)NC(=O)[C@H](Cc2c[nH]cn2)NC(=O)[C@]2(C)CCCC=CCCC[C@](C)(NC(=O)[C@@H](N)Cc3c[nH]c4ccccc34)C(=O)NCC(=O)N[C@@H](CCCCN)C(=O)N[C@@H](Cc3ccccc3)C(=O)N2)CCCC=CCCC[C@@](C)(C(=O)N[C@@H](C)C(=O)N[C@@H](CCCCN)C(=O)N[C@@H](CCCCN)C(N)=O)NC(=O)[C@H](CCC(=O)O)NC(=O)CNC1=O [compound 56] (H-W[S5]GKF[S5]HSKKKFGKA[S5]VGE[S5]AKK-NH2; staple 2-6, 16-20) | >64 µg/mL | – | 4 µg/mL | – | 16 µg/mL | 8 µg/mL | >64 µg/mL | 200 µg/mL (≈ 75.2 µM) | 78 µg/mL (≈ 29.3 µM)
7 | CC(C)[C@@H]1NC(=O)[C@@](C)(NC(=O)[C@H](C)NC(=O)[C@H](CCCCN)NC(=O)CNC(=O)[C@H](Cc2ccccc2)NC(=O)[C@H](CCCCN)NC(=O)[C@H](CCCCN)NC(=O)[C@H](CCCCN)NC(=O)[C@H](CO)NC(=O)[C@H](Cc2c[nH]cn2)NC(=O)[C@]2(C)CCCC=CCCC[C@](C)(NC(=O)CN)C(=O)N[C@@H](Cc3c[nH]c4ccccc34)C(=O)N[C@@H](CCCCN)C(=O)N[C@@H](Cc3ccccc3)C(=O)N2)CCCC=CCCC[C@@](C)(C(=O)N[C@@H](C)C(=O)N[C@@H](CCCCN)C(=O)N[C@@H](CCCCN)C(N)=O)NC(=O)[C@H](CCC(=O)O)NC(=O)CNC1=O [compound 57] (H-G[S5]WKF[S5]HSKKKFGKA[S5]VGE[S5]AKK-NH2; staple 2-6, 16-20) | 16 µg/mL | – | 4 µg/mL | – | 8 µg/mL | 4 µg/mL | 32 µg/mL | 70 µg/mL (≈ 26.3 µM) | 35 µg/mL (≈ 13.2 µM)
